Measurements as given in patent US4201866A, “O-Hemi-succinate of propranolol” (American Home Products Corporation, priority 1977, dated 1980).
“And” between values parts separate entries of the source, which are not always exact repeats. Equal values may be shown once. Where a name gives a salt, the structure may show the parent alone. Read-outs that look alike come from different tables or passages of the source.

Key:
[1] = cited from earlier work
[2] = Oral administration of propranolol-o-hemi-succinate HCl and propranolol HCl; plasma levels of free propranolol (Example 2); type: in vivo, beagle dogs; conditions: 80 mg propranolol HCl or equivalent
Experimental: In this experiment, four beagle dogs were given an 80 mg. oral dose of propranolol HCl or an equivalent dose of the o-hemi-succinate. The animals were divided into two groups of two, each group receiving the drugs according to a crossover design. The crossover experiment was repeated twice. A period of at least one week elapsed between each dosing day. Blood samples were obtained at regular intervals after dosing a plasma was analyzed for free propranolol concentrations.
(§1) Plasma was analyzed for free propranolol by a TLC fluorometric procedure. Two ml samples were mixed with 2 ml of pH 10 buffer and extracted with 25 ml of ethyl ether. A 20 ml aliquot from the ether phase was evaporated to dryness and the dry residue was dissolved in 100 μl of ethanol. Twenty-five μl aliquots were spotted on TLC plates of silica gel along with standard solutions of propranolol. The plates were developed in a saturated tank containing the solvent system methanol (100 ml): concentrated NH4 OH (0.4 ml). After development, the plates were dried and sprayed with a 50% solution of propylene glycol in water. They were then read in the fluorescence mode of a Schoeffel spectrodensitometer. The limit of reliable quantitation was 2 ng. of propranolol per ml of plasma.

[3] = Oral administration of a reduced dose of propranolol-o-hemi-succinate hydrochloride; plasma levels of free propranolol (Example 4); type: in vivo, beagle dogs
Experimental: Two beagle dogs were given an oral dose of 13.4 mg of propranolol-O-hemi-succinate hydrochloride (equivalent to 10 mg. propranolol HCl). Blood samples were obtained at regular intervals after drug administration and plasma analyzed for free propranolol. Plasma levels of free propranolol were compared to those obtained following administration of 80 mg dose of propranolol HCl.

[4] = Intravenous administration of propranolol HCl and propranolol-o-hemi-succinate HCl; plasma levels of free propranolol (Example 3); type: in vivo, beagle dogs; conditions: i.v., 20 mg propranolol HCl or equivalent
Experimental: as §1
In this experiment, the same four dogs used in Example 2 were administered a 20 mg intravenous dose of propranolol HCl on one experimental day and an equivalent dose of the o-hemi-succinate on a second day. A period of one week elapsed between each administration. Blood samples were collected and analyzed as above.

**Q.** With `CC(C)NCC(O)COc1cccc2ccccc12` (centres unmarked) [propranolol HCl, 1-isopropyl-amino-3-(1-naphthoxy)-2-propanol] as the molecule, how does the “unchanged active material reaching the systemic circulation after oral administration” value ([1]; because of extensive metabolism) read?
**A.** little unchanged active material

**Q.** And the “patient to patient variation of plasma levels” value ([1]; oral)?
**A.** large patient to patient variation

**Q.** What about the “Plasma level of free propranolol” value ([2]; 0 h, individual dogs) of the same molecule?
**A.** 0 ng/mL

**Q.** And the “Mean plasma level of free propranolol” value ([2]; 0 h, mean of Study 1, Study 2 or overall)?
**A.** 0 ng/mL

**Q.** And the “C.V. of overall mean AUC 0-6 hr” value [2]?
**A.** 65%

**Q.** And the “s.d. of overall mean AUC 0-6 hr” value [2]?
**A.** 87 ng·h/mL

**Q.** And the “AUC 0-6 hr of free propranolol” value ([2]; individual dogs, listed as propranolol hydrochloride, 360 min)?
**A.** 69 ng·h/mL and 63 ng·h/mL and 29 ng·h/mL and 160 ng·h/mL and 189 ng·h/mL and 171 ng·h/mL and 297 ng·h/mL and 99 ng·h/mL

**Q.** What about the “Plasma level of free propranolol” value ([2]; 1/2 hr after dosing, individual dogs) of the same molecule?
**A.** 0 ng/mL

**Q.** What about the “Plasma level of free propranolol” value ([2]; 1/2 hr after dosing, individual dogs, 30 min, listed as propranolol hydrochloride, 30 min) of the same molecule?
**A.** 23 ng/mL and 103 ng/mL and 24 ng/mL

**Q.** And the “Plasma level of free propranolol” value ([2]; 1/2 hr after dosing, individual dogs, listed as propranolol hydrochloride)?
**A.** trace

**Q.** And the “Plasma level of free propranolol” value ([2]; 1 hr after dosing, individual dogs, listed as propranolol hydrochloride)?
**A.** trace and 0 ng/ml

**Q.** And the “Plasma level of free propranolol” value ([2]; 1 hr after dosing, individual dogs, listed as propranolol hydrochloride, 60 min)?
**A.** 11 ng/mL and 56 ng/mL and 31 ng/mL and 101 ng/mL and 24 ng/mL

**Q.** And the “Plasma level of free propranolol” value ([2]; 2 hr after dosing, individual dogs, listed as propranolol hydrochloride)?
**A.** trace

**Q.** What about the “Plasma level of free propranolol” value ([2]; 2 hr after dosing, individual dogs, listed as propranolol hydrochloride, 120 min) of the same molecule?
**A.** 23 ng/mL and 14 ng/mL and 45 ng/mL and 51 ng/mL and 65 ng/mL and 19 ng/mL

**Q.** And the “Plasma level of free propranolol” value ([2]; 4 hr after dosing, individual dogs, listed as propranolol hydrochloride)?
**A.** trace

**Q.** And the “Plasma level of free propranolol” value ([2]; 4 hr after dosing, individual dogs, listed as propranolol hydrochloride, 240 min)?
**A.** 26 ng/mL and 14 ng/mL and 12 ng/mL and 36 ng/mL and 33 ng/mL and 17 ng/mL

**Q.** And the “Plasma level of free propranolol” value ([2]; 6 hr after dosing, individual dogs, listed as propranolol hydrochloride)?
**A.** 0 ng/ml and trace

**Q.** And the “Plasma level of free propranolol” value ([2]; 6 hr after dosing, individual dogs, listed as propranolol hydrochloride, 360 min)?
**A.** 17 ng/mL and 21 ng/mL and 6 ng/mL

**Q.** What about the half-life ([2]; dog, plasma) of the same molecule?
**A.** 1.8 h

**Q.** What about the AUC at 6 h ([2]; dog, plasma, po, 80 mg, read-out: average AUC (0-6 hr.) of free propranolol, overall study) of the same molecule?
**A.** 132 ng·h/mL

**Q.** What about the “Plasma level of free propranolol” value ([3]; 0 h, 80 mg propranolol HCl or 13.4 mg hemi-succinate HCl, individual dogs) of the same molecule?
**A.** 0

**Q.** And the “AUC of free propranolol” value ([3]; 13.4 mg hemi-succinate HCl or 80 mg propranolol HCl, dog #353 (101, 92), dog #250 (114, 168), 360 min)?
**A.** 168

**Q.** What about the “Plasma level of free propranolol” value ([3]; 1/2 hour after dosing, 80 mg propranolol HCl or 13.4 mg hemi-succinate HCl, individual dogs, 30 min) of the same molecule?
**A.** 18

**Q.** What about the “Plasma level of free propranolol” value ([3]; 1 hour after dosing, 80 mg propranolol HCl or 13.4 mg hemi-succinate HCl, individual dogs, 60 min) of the same molecule?
**A.** 44

**Q.** What about the “Plasma level of free propranolol” value ([3]; 2 hours after dosing, 80 mg propranolol HCl or 13.4 mg hemi-succinate HCl, individual dogs, 120 min) of the same molecule?
**A.** 51 and 24

**Q.** And the “Plasma level of free propranolol” value ([3]; 4 hours after dosing, 80 mg propranolol HCl or 13.4 mg hemi-succinate HCl, individual dogs, 240 min)?
**A.** 26 and 7

**Q.** And the “Plasma level of free propranolol” value ([3]; 6 hours after dosing, 80 mg propranolol HCl or 13.4 mg hemi-succinate HCl, individual dogs)?
**A.** 0

**Q.** What about the AUC at 6 h ([3]; dog, plasma, po, 80 mg, 13.4 mg hemi-succinate HCl or 80 mg propranolol HCl, dog #353 (101, 92), dog #250 (114, 168)) of the same molecule?
**A.** 92 ng·h/mL

**Q.** And the concentration at 0.5 h ([3]; dog, plasma, po, 80 mg, 1/2 hour after dosing, 80 mg propranolol HCl or 13.4 mg hemi-succinate HCl, individual dogs, read-out: Plasma level of free propranolol)?
**A.** 10 ng/mL

**Q.** And the concentration at 1 h ([3]; dog, plasma, po, 80 mg, 1 hour after dosing, 80 mg propranolol HCl or 13.4 mg hemi-succinate HCl, individual dogs, read-out: Plasma level of free propranolol)?
**A.** 38 ng/mL

**Q.** And the concentration at 6 h ([3]; dog, plasma, po, 80 mg, 6 hours after dosing, 80 mg propranolol HCl or 13.4 mg hemi-succinate HCl, individual dogs, read-out: Plasma level of free propranolol)?
**A.** 9 ng/mL

**Q.** What about the “Plasma level of free propranolol” value ([4]; 0 h, individual dogs) of the same molecule?
**A.** 0 ng/mL

**Q.** And the “Mean plasma level of free propranolol” value ([4]; 0 h, mean)?
**A.** 0 ng/mL

**Q.** And the “Plasma level of free propranolol” value ([4]; 1/2 hr after dosing, individual dogs, 30 min)?
**A.** 232 ng/mL and 269 ng/mL and 144 ng/mL

**Q.** What about the “Plasma level of free propranolol” value ([4]; 5 min after dosing, individual dogs, 5 min) of the same molecule?
**A.** 391 ng/mL and 312 ng/mL and 376 ng/mL and 194 ng/mL

**Q.** And the “Plasma level of free propranolol” value ([4]; 10 min after dosing, individual dogs, 10 min)?
**A.** 368 ng/mL and 319 ng/mL and 177 ng/mL

**Q.** And the “Plasma level of free propranolol” value ([4]; 15 min after dosing, individual dogs, 15 min)?
**A.** 320 ng/mL and 271 ng/mL and 149 ng/mL

**Q.** What about the “Plasma level of free propranolol” value ([4]; 1 hr after dosing, individual dogs, 60 min) of the same molecule?
**A.** 207 ng/mL and 229 ng/mL and 128 ng/mL

**Q.** And the “Plasma level of free propranolol” value ([4]; 2 hr after dosing, individual dogs, 120 min)?
**A.** 149 ng/mL and 119 ng/mL and 122 ng/mL

**Q.** What about the “Plasma level of free propranolol” value ([4]; 4 hr after dosing, individual dogs, 240 min) of the same molecule?
**A.** 114 ng/mL and 87 ng/mL and 61 ng/mL

**Q.** What about the “Plasma level of free propranolol” value ([4]; 6 hr after dosing, individual dogs, 360 min) of the same molecule?
**A.** 45 ng/mL and 28 ng/mL and 39 ng/mL

**Q.** And the concentration at 0.5 h ([4]; dog, plasma, iv, 20 mg, 1/2 hr after dosing, individual dogs, read-out: Plasma level of free propranolol)?
**A.** 280 ng/mL

**Q.** What about the concentration at 0.5 h ([4]; dog, plasma, iv, 20 mg, 1/2 hr after dosing, mean, read-out: Mean plasma level of free propranolol) of the same molecule?
**A.** 231 ng/mL

**Q.** And the concentration at 5 min ([4]; dog, plasma, iv, 20 mg, 5 min after dosing, mean, read-out: Mean plasma level of free propranolol)?
**A.** 318 ng/mL

**Q.** What about the concentration at 10 min ([4]; dog, plasma, iv, 20 mg, 10 min after dosing, mean, read-out: Mean plasma level of free propranolol) of the same molecule?
**A.** 288 ng/mL

**Q.** And the concentration at 0.25 h ([4]; dog, plasma, iv, 20 mg, 15 min after dosing, mean, read-out: Mean plasma level of free propranolol)?
**A.** 247 ng/mL

**Q.** What about the concentration at 1 h ([4]; dog, plasma, iv, 20 mg, 1 hr after dosing, individual dogs, read-out: Plasma level of free propranolol) of the same molecule?
**A.** 240 ng/mL

**Q.** What about the concentration at 1 h ([4]; dog, plasma, iv, 20 mg, 1 hr after dosing, mean, read-out: Mean plasma level of free propranolol) of the same molecule?
**A.** 201 ng/mL

**Q.** And the concentration at 2 h ([4]; dog, plasma, iv, 20 mg, 2 hr after dosing, individual dogs, read-out: Plasma level of free propranolol)?
**A.** 191 ng/mL

**Q.** What about the concentration at 2 h ([4]; dog, plasma, iv, 20 mg, 2 hr after dosing, mean, read-out: Mean plasma level of free propranolol) of the same molecule?
**A.** 145 ng/mL

**Q.** What about the concentration at 4 h ([4]; dog, plasma, iv, 20 mg, 4 hr after dosing, mean, read-out: Mean plasma level of free propranolol) of the same molecule?
**A.** 79 ng/mL

**Q.** What about the concentration at 6 h ([4]; dog, plasma, iv, 20 mg, 6 hr after dosing, individual dogs, read-out: Plasma level of free propranolol) of the same molecule?
**A.** 53 ng/mL

**Q.** What about the concentration at 6 h ([4]; dog, plasma, iv, 20 mg, 6 hr after dosing, mean, read-out: Mean plasma level of free propranolol) of the same molecule?
**A.** 41 ng/mL

**Q.** And the AUC at 6 h ([4]; dog, plasma, iv, 20 mg, individual dogs, read-out: AUC 0-6 hr of free propranolol)?
**A.** 974 ng·h/mL

**Q.** And the AUC at 6 h ([4]; dog, plasma, iv, 20 mg, read-out: average AUC of free propranolol)?
**A.** 746 ng·h/mL

**Q.** And the “AUC 0-6 hr of free propranolol” value ([4]; individual dogs, 360 min)?
**A.** 744 ng·h/mL and 615 ng·h/mL and 534 ng·h/mL
